Source: US11666583B2, “Methods of treating cortical dementia associated wandering” (WOOLSEY PHARMACEUTICALS, INC., priority 2020, dated 2023)
Structures can show the parent of a compound that is named as a salt.

What was measured:
[1] = target: p38 mitogen-activated protein kinase (Homo sapiens, UniProt Q16539); conditions: cited from earlier work
[2] = 1-hydroxy (M3) metabolite; cited from earlier work
streptozotocin rats = conditions: 5 and 10 mg/kg/day intraperitoneally; cited from earlier work
[3] = system: patients with Alzheimer's Dementia (AD) and cortical vascular dementia (VaD); assay: Clinical trial of oral fasudil on frequency of wandering (Example 1); format: in vivo, human
From the text: Twenty patients, 10 with AD and 10 with VaD (confirmed by […]) who are characterized wanderers, are enrolled into the study and observed for 2 weeks to confirm wandering behavior. […] The double-blind phase is followed by another treatment period of 6 weeks with the opposite treatment assignment (placebo or test drug taken with food).
• a. Walks distinctly more than average as others of same age and ability AND/OR • b. Elopement behavior≥3× per week in the opinion of the investigator Criteria for Entering First Double-Blind Treatment Period: Wanders: • a. Walks less than half the mean distance measured in observation period AND/OR • b. Elopement behavior<1× per week in the opinion of the investigator AND/OR • c. Wandering has improved in the opinion of the Investigator. 4. For entering observation period and for entering open label treatment period: • a. MMSE between 10 and 25.
Wandering is measured in term of time in motion and distance traveled (measures of persistent wandering), attempted and successful boundary transgressions (measures of elopement) and patterns like pacing a lapping (indicative of persistent wandering and/or agitation or anxiety) using an electronic tracking device. A typical tracking device would use a combination of accelerometry with positioning, using technology like RFID or Bluetooth in an indoor environment and GPS outdoors. Other wayfinding, orientation and memory-associated wandering incidents are observed and recorded manually.
The Mini Mental State Exam (MMSE), the Woolsey Wandering Questionnaire and the Revised Algase Wandering Scale are administered at baseline and at the end of each treatment period. Any change in the use of antipsychotics or anxiolytics that could affect movement during the study is strongly discouraged.

[4] = system: triple transgenic mouse model (APP Swedish, MAPT P301L, and PSEN1 M146V); conditions: 10 mg/kg/day intraperitoneally; cited from earlier work
triple transgenic mice = conditions: 30 mg/kg and 100 mg/kg in water, 10 or 12 months of age; cited from earlier work
[5] = system: patients with wandering due to VaD; conditions: cited from earlier work
APP/PS1 transgenic mice = conditions: 5 and 10 mg/kg/day intraperitoneally; cited from earlier work

Sequence of p38 mitogen-activated protein kinase (Q16539 whole entry): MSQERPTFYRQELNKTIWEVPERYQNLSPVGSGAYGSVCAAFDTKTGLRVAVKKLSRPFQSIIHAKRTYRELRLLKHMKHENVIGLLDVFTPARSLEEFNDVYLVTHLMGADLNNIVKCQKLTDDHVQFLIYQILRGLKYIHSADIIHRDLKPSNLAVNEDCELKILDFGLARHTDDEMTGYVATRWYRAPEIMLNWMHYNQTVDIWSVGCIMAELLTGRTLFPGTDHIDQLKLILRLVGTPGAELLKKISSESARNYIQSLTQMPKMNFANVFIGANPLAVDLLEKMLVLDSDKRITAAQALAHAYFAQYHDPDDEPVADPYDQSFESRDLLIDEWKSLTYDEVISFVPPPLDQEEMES

Structure (SMILES): O=c1ncn2nc(Sc3ccc(F)cc3F)ccc2c1-c1c(Cl)cccc1Cl [Neflamapimod]
- primary endpoint of improving episodic memory ([1]; Phase 2): failed
- tau in the cerebrospinal fluid ([1]; Phase 2): reducing tau
- Aβ deposition ([1]; humans): no effect

Structure (SMILES): O=S(=O)(c1cccc2c(O)nccc12)N1CCCNCC1 [M3]
- half-life [2]: about 8 hours

Structure (SMILES): O=S(=O)(c1cccc2cnccc12)N1CCCNCC1 [fasudil, Hexahydro-1-(5-isoquinolinesulfonyl)-1H-1,4-diazepine monohydrochloride hemihydrate]
- latency distance and quadrant time in the Morris water maze (streptozotocin rats): improved
- measures of caregiver burden ([3]; on drug, 90 mg/day): significant effect
- reduction in wandering, at least one item of the RAWS and/or the WWQ ([3]; oral 90 mg/day (30 mg TID), 6 weeks, AD and cortical VaD wanderers): significant reduction
- mean increase in MMSE score ([3]; persistent wanderers, 90 mg/day): greater than 3 points
- reduction of activity levels ([3]; persistent wanderers, on drug as compared to placebo, 90 mg/day): about 50%
- wayfinding errors and other problematic behaviors ([3]; sporadic wanderers, while on drug): significant reduction
- ß-amyloid plaques in vivo [4]: reduce ß-amyloid plaques
- spatial memory (triple transgenic mice): did not observe improvements
- wandering symptoms ([5]; patient with Binswanger-type cerebral infarction, within weeks of beginning treatment): disappeared and remained absent for the duration of treatment
- wayfinding symptoms ([5]; patient with sequelae of cerebral bleeding and multiple lacunar infarctions (lacunar dementia)): disappeared quickly and remained absent for the duration of treatment
- latency distance and quadrant time in the Morris water maze (APP/PS1 transgenic mice): improved
